Experimental findings from ChEMBL document CHEMBL1201862, “PubChem BioAssay data set” (2004) are described below.

Each structure is given as a SMILES string.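 96-well plates; 48 h exposure; 5 concentrations. Endpoints by linear interpolation between flanking doses. Not reached: highest tested concentration assigned. At the GI50, growth is halved.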 Activity calls are given as the source filed them. Rule as the data show it: active = GI50 up to about 1.1 µM and inactive = higher.

Common to all, as to assay: NCI tumour cell line growth inhibition, 48 h
Assay [1] concerns COLO 205.
The subject of assay [2] is DU-145.
Assay [3] relates to EKVX.
For assay [4], the system named is HCC 2998.
Assay [5] concerns HCT-116.
Assay [6] deals with HL-60.
Assay [7] deals with HOP-92.
The test system of assay [8] is Hs-578T.
Assay [9] has as its system IGROV-1.
Assay [10] deals with K562.
The subject of assay [11] is MDA-MB-231.
Assay [12] deals with MDA-N.
The test system of assay [13] is NCI-H460.
The subject of assay [14] is NCI/ADR-RES.
Assay [15] relates to PC-3.
Assay [16] relates to SK-MEL-2.
Assay [17] concerns SNB-75.
For assay [18], the system named is SR.
Assay [19] concerns TK-10.

Turning to `CC1CCC2(CC1)N=C1CCC(C)CC1C1(CCC(C)CC1)N2` (stereo unspecified), the GI50 in assay [1] was > 100 µM (inactive); in assay [2], > 100 µM (inactive); in assay [3], > 10 µM (inactive); in assay [4], 69 µM (inactive); in [5] it was 36 µM (inactive); in assay [6], 43.8 µM (inactive). Besides, the GI50 is > 100 µM (inactive) in assay [7]; > 100 µM (inactive) in [8]; > 100 µM (inactive) in [9]; 30.4 µM (inactive) in assay [10]; > 100 µM (inactive) in assay [11]; 73.8 µM (inactive) in assay [12]. For the same compound, the GI50 was > 100 µM (inactive) in assay [13]; > 100 µM (inactive) in assay [14]; 41.2 µM (inactive) in [15]; > 100 µM (inactive) in [16]; 19.6 µM (inactive) in assay [17]; 50.8 µM (inactive) in assay [18]. In addition, the GI50 in assay [19] was > 100 µM (inactive).
For the compound `CC1=CC(O)CC(C)(C)C1/C=C/C(C)=C/C=C/C(C)=C/C=C/C=C(C)/C=C/C=C(C)/C=C/C1=C(C)CC(O)CC1(C)C` (stereo unspecified), the GI50 was 20.7 µM (inactive) in assay [1]; 7.43 µM (inactive) in assay [2]; 79.3 µM (inactive) in assay [3]; 83.9 µM (inactive) in assay [4]; 15.7 µM (inactive) in assay [5]; 51.6 µM (inactive) in assay [6]. The GI50 in assay [7] was 21.4 µM (inactive); in [8], 80.5 µM (inactive); in assay [9] it was 26.5 µM (inactive); in assay [10], 38.3 µM (inactive); in assay [11], 13.5 µM (inactive); in assay [12] it was 18.7 µM (inactive). Further, the GI50 was 32.6 µM (inactive) in assay [13]; 24.5 µM (inactive) in assay [14]; 23.2 µM (inactive) in assay [15]; 25 µM (inactive) in [16]; 26.5 µM (inactive) in [17]; 15.7 µM (inactive) in assay [18]. The GI50 in [19] was 57.8 µM (inactive).
For the compound `COc1ccc(-c2c(-c3ccccc3)c(C)c3ccccn23)cc1`, the GI50 is 80.4 µM (inactive) in assay [1]; > 100 µM (inactive) in assay [2]; 99.5 µM (inactive) in assay [3]; > 100 µM (inactive) in [4]; 72.3 µM (inactive) in [5]; 48.4 µM (inactive) in [6]. For the same compound, the GI50 in assay [7] is > 100 µM (inactive); in assay [8] it was > 100 µM (inactive); in assay [9] it was > 100 µM (inactive); in assay [10], 50 µM (inactive); in [11], > 100 µM (inactive); in assay [12], 70.1 µM (inactive). Further, the GI50 was 59.2 µM (inactive) in [13]; > 100 µM (inactive) in assay [14]; 84.3 µM (inactive) in assay [15]; 33 µM (inactive) in [16]; > 100 µM (inactive) in assay [17]; 26.4 µM (inactive) in [18]. Also, the GI50 in assay [19] was > 100 µM (inactive).
As for `CCOC(=O)c1nc2cc(Cl)ccc2[nH]c1=O`, the GI50 in [1], in assay [2], in [3], in assay [4], in assay [5] and in assay [6] was > 100 µM (inactive) each time. Moreover, the GI50 in assay [7], in assay [8], in [9], in assay [10], in assay [11] and in [12] was > 100 µM (inactive) in each case. For the same compound, the GI50 is 53.7 µM (inactive) in assay [13]; > 100 µM (inactive) in [14]; > 100 µM (inactive) in assay [15]; > 100 µM (inactive) in assay [16]; < 0.01 µM (active) in assay [17]; > 100 µM (inactive) in assay [18]. For the same compound, the GI50 in assay [19] is > 100 µM (inactive).
